Values quoted from earlier work in patent US12173009B2, “Diamine derivatives as inhibitors of leukotriene A4 hydrolase” (CELLTAXIS, LLC, priority 2005, dated 2024).

Columns and labels:
[1] = test system: spontaneous colitis; settings: eight weeks of treatment; cotton top tamarins
[2] = molecular target: T1, LTA4-h (Rattus norvegicus, UniProt P30349); settings: oral administration; rat peritoneum in vivo
T1 construct: host or cells: rat peritoneum (endogenous enzyme)
T1 sequence (P30349 1-611): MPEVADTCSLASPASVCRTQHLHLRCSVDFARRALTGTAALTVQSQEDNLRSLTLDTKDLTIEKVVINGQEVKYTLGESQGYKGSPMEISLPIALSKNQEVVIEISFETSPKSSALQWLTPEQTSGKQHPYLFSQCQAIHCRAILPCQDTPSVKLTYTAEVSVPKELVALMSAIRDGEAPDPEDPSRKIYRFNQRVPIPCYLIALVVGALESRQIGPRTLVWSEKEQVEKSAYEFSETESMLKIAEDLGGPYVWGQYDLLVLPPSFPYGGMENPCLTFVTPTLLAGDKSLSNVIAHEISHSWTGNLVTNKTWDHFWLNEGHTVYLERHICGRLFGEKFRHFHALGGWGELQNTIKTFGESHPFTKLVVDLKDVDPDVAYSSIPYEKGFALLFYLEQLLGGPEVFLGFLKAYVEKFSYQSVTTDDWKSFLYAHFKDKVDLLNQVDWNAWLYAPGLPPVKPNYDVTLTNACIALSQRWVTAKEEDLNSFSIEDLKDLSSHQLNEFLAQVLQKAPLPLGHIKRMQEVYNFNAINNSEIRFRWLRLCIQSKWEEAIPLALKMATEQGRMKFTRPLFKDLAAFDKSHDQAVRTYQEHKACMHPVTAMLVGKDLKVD

[3] = molecular target: T2, LTA4-h (Mus musculus, UniProt P24527); settings: oral administration; mouse blood ex vivo
T2 construct: host or cells: mouse blood (endogenous enzyme)
T2 sequence (P24527 1-611): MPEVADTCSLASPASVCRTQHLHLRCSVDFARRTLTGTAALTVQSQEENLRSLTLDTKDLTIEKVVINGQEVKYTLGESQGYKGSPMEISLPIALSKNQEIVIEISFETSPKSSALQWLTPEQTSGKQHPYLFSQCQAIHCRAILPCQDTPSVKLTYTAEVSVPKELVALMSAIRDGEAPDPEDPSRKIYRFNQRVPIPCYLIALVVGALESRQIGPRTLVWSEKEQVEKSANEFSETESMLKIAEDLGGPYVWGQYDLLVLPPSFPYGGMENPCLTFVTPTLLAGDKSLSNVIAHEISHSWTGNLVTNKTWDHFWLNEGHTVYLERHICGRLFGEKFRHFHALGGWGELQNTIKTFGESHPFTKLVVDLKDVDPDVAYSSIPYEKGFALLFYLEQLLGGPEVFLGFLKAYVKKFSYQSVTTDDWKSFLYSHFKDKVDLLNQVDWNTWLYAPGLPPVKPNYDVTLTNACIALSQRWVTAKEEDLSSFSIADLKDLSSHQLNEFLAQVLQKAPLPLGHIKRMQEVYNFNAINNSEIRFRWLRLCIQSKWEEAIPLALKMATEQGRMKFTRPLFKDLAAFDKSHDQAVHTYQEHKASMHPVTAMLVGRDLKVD

[4] = test system: lower affinity LTB4 receptors on neutrophils; settings: additional lower affinity receptors on neutrophils
[5] = molecular target: BLT1; settings: Human BLT1 and its mouse, rat and guinea pig orthologues
[6] = molecular target: T3, Human BLT2 (Homo sapiens, UniProt Q9NPC1); settings: Human BLT2 versus BLT1
T3 sequence (Q9NPC1 1-358): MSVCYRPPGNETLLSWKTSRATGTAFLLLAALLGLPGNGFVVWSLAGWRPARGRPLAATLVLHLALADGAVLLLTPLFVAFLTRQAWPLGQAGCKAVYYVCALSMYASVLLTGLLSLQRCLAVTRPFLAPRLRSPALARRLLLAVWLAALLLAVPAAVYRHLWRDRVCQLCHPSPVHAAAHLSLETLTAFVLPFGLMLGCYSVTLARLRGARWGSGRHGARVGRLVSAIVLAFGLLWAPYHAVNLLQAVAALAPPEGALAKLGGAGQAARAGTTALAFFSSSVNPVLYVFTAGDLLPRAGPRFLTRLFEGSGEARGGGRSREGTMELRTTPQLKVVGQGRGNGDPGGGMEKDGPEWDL

Structure (SMILES)	colitis symptoms [1]	ionophore-induced LTB4 production [2]	ionophore-induced LTB4 production [3]	Kd [4] [pM]	Kd [5] [pM]	lower affinity of BLT2 for LTB4 than BLT1 [6] [fold]
CN(CCCOc1ccc(Cc2ccccc2)cc1)CCC(=O)O.Cl [SC57461]	significantly improved colitis symptoms	caused inhibition	caused inhibition			
CCCCC/C=C\C[C@@H](O)/C=C/C=C/C=C\[C@@H](O)CCCC(=O)O [LTB4, Leukotriene B4]				> 60000	100 to 700	20
